In patent publication US20230218547A1, “CHEMICAL COMPOSITION” (The University of Liverpool, priority 2016, published 2023):
Where two headings read alike, the source gives them in different places.

Tests used:
[1] = humans; known value; cited from earlier work
[2] = Atovaquone release by Rapid Equilibrium Dialysis (RED) in Simulated Interstitial Fluid; type: physicochemical; details: initial 6-hour period, SIF, 1 mg/mL atovaquone, 37° C.
Procedure: The release rate of atovaquone from solid compositions thereof in accordance with the invention, alongside an equivalent unformulated preparation of atovaquone, was assessed using Rapid Equilibrium Dialysis (RED) (ThermoFisher Scientific). The eleven ‘hit’ formulations were dispersed in Simulated Interstitial Fluid (SIF) and subsequently diluted to 1 mg/mL of atovaquone. The SIF consisted of 35 mg/mL bovine serum albumin (BSA) and 2 mg/mL γ-Globulin derived from bovine blood and dissolved in distilled water. Unformulated atovaquone was initially dissolved in DMSO prior to dilution with SIF, such that the DMSO volume was <1% of the total volume. […] Following incubation, 4 mL ultima gold liquid scintillation cocktail fluid (Meridian Biotechnologies, UK) was added to each 0.1 mL sample and radioactivity was determined as disintegrations per minute (DPM) using a Perkin Elmer 3100TS scintillation counter. Data is expressed as the amount of atovaquone released and diffused across the membrane as a percentage of the starting donor amount, in triplicate, for each of the eleven hit formulations as compared to unformulated atovaquone, as shown in FIGS. 3A-3K (error bars are ±1 S.D.) and FIG. 4 (release after 24 hours) (error bars are ±1 S.D.). […]

[3] = design: species or system mice; details: mouse, in vivo
Procedure: Mice were injected intramuscularly with 200 mg/kg of an atovaquone nanoformulation. At intervals blood was harvested (microtainer tubes, BD Biosciences), centrifuged (1300×g, 10 min, 4° C.), and plasma was collected and stored at −80° C. until use. The nanoformulations tested were ACS_ATQ_7 and ACS_ATQ_8.
The concentration of atovaquone in the plasma was assayed by UPLC-MS/MS. Briefly, acetonitrile and deuterated atovaquone internal standard were added to 25 μL of thawed plasma, followed by filtration (Captiva filtration plate, Agilent Technologies). A 5 μL aliquot was separated on a reverse phase column and atovaquone was monitored by triple-quadrupole API4000 (SCIEX, Framingham, Mass., USA) mass analyzer with electrospray ionization. The assay was validated to FDA guidelines for 250-50,000 ng/mL. Values between 250 and 77 ng/mL (the limit of detection) were interpreted conservatively.

[4] = background statement; cited from earlier work
[5] = orally dosed; mice; known value; cited from earlier work
[6] = in vivo

## O=C1C(O)=C([C@H]2CC[C@H](c3ccc(Cl)cc3)CC2)C(=O)c2ccccc21 [atovaquone]
[1]
  plasma half-life: 70 h
[2]; Table 3
  Release Rate: 0.006 h⁻¹
[2]; different loadings, Table 7
  Release Rate: 0.0060 h⁻¹
[3]
  plasma concentration of atovaquone that correlates with successful prophylaxis: > 200 ng/mL
[4]
  lipophilicity: highly lipophilic
  solubility in water: practically insoluble
[5]
  plasma half-life: 9 h
[6]
  disposition of atovaquone in humans relative to mice: approximately eight
